US20040234978A1, “Novel potential-dependent cation channel protein” (priority 2001, published 2004)

System: CAE9577
Test: Na current measurement in CAE9577 expressed oocytes
Assay type: cell-based, human

In the case of `NC1=N[C@H](O)[C@H]2[C@H]3O[C@]4(O)O[C@@H]([C@@H](O)[C@@]2(N1)[C@@H]4O)[C@]3(O)CO` [TTX, Tetrodotoxin], the “inhibition of the inward Na current” value is reported as “partially inhibited”.
